Experimental data as given in PubChem BioAssay AID1963825 (Molecular Pharmacology Branch, DTP, NCI, 2024).

Assay: Anticancer human tumor 997537-175-T-J1-PDC patient-derived colon adenocarcinoma cell line growth inhibition [POLQ]
Conditions: 997537-175-T-J1-PDC complex spheroid viability, combination with POLQ inhibitors; for IC50: curve of first compound; for viability, T/C: stronger effect = lower value
Summary of the method: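 Complex spheroid viability model combining PDC tumour cells with endothelial (HUVEC) and MSC stromal cells. Novobiocin, ART-558 or RP6685 were tested singly and in combination with standard and investigational anticancer drugs. Each was titrated in half-log steps from near clinical Cmax, or from 10 microM where Cmax was unknown.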

[1] = second compound 0.0316 µM, first compound 0.0316 µM
[2] = second compound 0.0316 µM, first compound 0.1 µM
[3] = second compound 0.0316 µM, first compound 0.316 µM
[4] = second compound 0.0316 µM, first compound 1 µM
[5] = second compound 0.0316 µM, first compound 3.16 µM
[6] = second compound 0.0316 µM, first compound 10 µM
[7] = second compound 0.1 µM, first compound 0.0316 µM
[8] = second compound 0.1 µM, first compound 0.1 µM
[9] = second compound 0.1 µM, first compound 0.316 µM
[10] = second compound 0.1 µM, first compound 1 µM
[11] = second compound 0.1 µM, first compound 3.16 µM
[12] = second compound 0.1 µM, first compound 10 µM
[13] = second compound 0.316 µM, first compound 0.0316 µM
[14] = second compound 0.316 µM, first compound 0.1 µM
[15] = second compound 0.316 µM, first compound 0.316 µM
[16] = second compound 0.316 µM, first compound 1 µM
[17] = second compound 0.316 µM, first compound 3.16 µM
[18] = second compound 0.316 µM, first compound 10 µM
[19] = second compound 1 µM, first compound 0.0316 µM
[20] = second compound 1 µM, first compound 0.1 µM
[21] = second compound 1 µM, first compound 0.316 µM
[22] = second compound 1 µM, first compound 1 µM
[23] = second compound 1 µM, first compound 3.16 µM
[24] = second compound 1 µM, first compound 10 µM
[25] = second compound 3.16 µM, first compound 0.0316 µM
[26] = second compound 3.16 µM, first compound 0.1 µM
[27] = second compound 3.16 µM, first compound 0.316 µM
[28] = second compound 3.16 µM, first compound 1 µM
[29] = second compound 3.16 µM, first compound 3.16 µM
[30] = second compound 3.16 µM, first compound 10 µM
[31] = second compound 10 µM, first compound 0.0316 µM
[32] = second compound 10 µM, first compound 0.1 µM
[33] = second compound 10 µM, first compound 0.316 µM
[34] = second compound 10 µM, first compound 1 µM
[35] = second compound 10 µM, first compound 3.16 µM
[36] = second compound 10 µM, first compound 10 µM
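Further: luminescence signal used as a surrogate for viable cells; spheroids exposed to drugs for seven days before readout.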

COc1cc(C2c3cc4c(cc3C(OC3OC5COC(C)OC5C(O)C3O)C3COC(=O)C23)OCO4)cc(OC)c1O (stereo unspecified) + Nc1ccc(C#CCN(C(=O)Cc2ncc(C(F)(F)F)cc2C(F)(F)F)c2ccc(F)cc2)nn1
IC50 (second compound 0.0316 µM): > 10 µM
IC50 (second compound 0.1 µM): > 10 µM
IC50 (second compound 0.316 µM): > 10 µM
IC50 (second compound 1 µM): > 10 µM
IC50 (second compound 3.16 µM): > 10 µM
IC50 (second compound 10 µM): 7.77 µM
viability, T/C [1]: 101%
viability, T/C [2]: 105%
viability, T/C [3]: 93.2%
viability, T/C [4]: 94.2%
viability, T/C [5]: 68%
viability, T/C [6]: 67.7%
viability, T/C [7]: 112%
viability, T/C [8]: 96.4%
viability, T/C [9]: 99.5%
viability, T/C [10]: 86%
viability, T/C [11]: 65.7%
viability, T/C [12]: 66.2%
viability, T/C [13]: 92.4%
viability, T/C [14]: 99.5%
viability, T/C [15]: 86.5%
viability, T/C [16]: 83.4%
viability, T/C [17]: 75.4%
viability, T/C [18]: 69.7%
viability, T/C [19]: 92.4%
viability, T/C [20]: 96.9%
viability, T/C [21]: 97.1%
viability, T/C [22]: 81%
viability, T/C [23]: 61%
viability, T/C [24]: 67.7%
viability, T/C [25]: 91.1%
viability, T/C [26]: 93.7%
viability, T/C [27]: 94.6%
viability, T/C [28]: 82.4%
viability, T/C [29]: 57.8%
viability, T/C [30]: 54.3%
viability, T/C [31]: 96%
viability, T/C [32]: 104%
viability, T/C [33]: 99.5%
viability, T/C [34]: 91%
viability, T/C [35]: 61.4%
viability, T/C [36]: 46.8%

COc1cccc2c1C(=O)c1c(O)c3c(c(O)c1C2=O)CC(O)(C(=O)CO)CC3OC1CC(N)C(O)C(C)O1 (stereo unspecified) + Nc1ccc(C#CCN(C(=O)Cc2ncc(C(F)(F)F)cc2C(F)(F)F)c2ccc(F)cc2)nn1
IC50 (second compound 0.0316 µM): 3.2 µM
IC50 (second compound 0.1 µM): 1.92 µM
IC50 (second compound 0.316 µM): 3.54 µM
IC50 (second compound 1 µM): 2.12 µM
IC50 (second compound 3.16 µM): 2.85 µM
IC50 (second compound 10 µM): 2.14 µM
viability, T/C [1]: 102%
viability, T/C [2]: 97.5%
viability, T/C [3]: 89.1%
viability, T/C [4]: 93.5%
viability, T/C [5]: 50.4%
viability, T/C [6]: 12.2%
viability, T/C [7]: 99.4%
viability, T/C [8]: 114%
viability, T/C [9]: 99.9%
viability, T/C [10]: 70.6%
viability, T/C [11]: 34.4%
viability, T/C [12]: 7.13%
viability, T/C [13]: 110%
viability, T/C [14]: 109%
viability, T/C [15]: 98.8%
viability, T/C [16]: 87.7%
viability, T/C [17]: 53.2%
viability, T/C [18]: 13.9%
viability, T/C [19]: 94.1%
viability, T/C [20]: 109%
viability, T/C [21]: 81.8%
viability, T/C [22]: 79.5%
viability, T/C [23]: 34.8%
viability, T/C [24]: 10.2%
viability, T/C [25]: 94.4%
viability, T/C [26]: 107%
viability, T/C [27]: 72.6%
viability, T/C [28]: 78.8%
viability, T/C [29]: 46.6%
viability, T/C [30]: 8.26%
viability, T/C [31]: 94.7%
viability, T/C [32]: 97.9%
viability, T/C [33]: 91.4%
viability, T/C [34]: 80%
viability, T/C [35]: 34.8%
viability, T/C [36]: 10.1%

O=c1[nH]cc(F)c(=O)[nH]1 + Nc1ccc(C#CCN(C(=O)Cc2ncc(C(F)(F)F)cc2C(F)(F)F)c2ccc(F)cc2)nn1
IC50 (second compound 0.0316 µM): > 10 µM
IC50 (second compound 0.1 µM): > 10 µM
IC50 (second compound 0.316 µM): > 10 µM
IC50 (second compound 1 µM): > 10 µM
IC50 (second compound 3.16 µM): > 10 µM
IC50 (second compound 10 µM): > 10 µM
viability, T/C [1]: 98.7%
viability, T/C [2]: 105%
viability, T/C [3]: 109%
viability, T/C [4]: 84.9%
viability, T/C [5]: 95.7%
viability, T/C [6]: 79%
viability, T/C [7]: 106%
viability, T/C [8]: 99.8%
viability, T/C [9]: 95.9%
viability, T/C [10]: 103%
viability, T/C [11]: 82.6%
viability, T/C [12]: 88.1%
viability, T/C [13]: 95%
viability, T/C [14]: 102%
viability, T/C [15]: 103%
viability, T/C [16]: 105%
viability, T/C [17]: 85%
viability, T/C [18]: 94.1%
viability, T/C [19]: 94.2%
viability, T/C [20]: 93.9%
viability, T/C [21]: 83.7%
viability, T/C [22]: 85.8%
viability, T/C [23]: 73.5%
viability, T/C [24]: 79.9%
viability, T/C [25]: 101%
viability, T/C [26]: 110%
viability, T/C [27]: 118%
viability, T/C [28]: 86.2%
viability, T/C [29]: 88.6%
viability, T/C [30]: 72.5%
viability, T/C [31]: 105%
viability, T/C [32]: 94.5%
viability, T/C [33]: 103%
viability, T/C [34]: 91.2%
viability, T/C [35]: 84.1%
viability, T/C [36]: 81%
